Read-outs that look alike come from different tables or passages of the source. Ends that are not written are not given here. Peptide text beside a SMILES is read from it.
Key:
[1] = test system: Primary Dermal Fibroblasts; test: Live/dead test (proliferation and cytotoxicity); format: cell-based; conditions: 100 ng/mL; for percentage of live cells (in words) / live cells: live/dead assay
Protocol: In the next stage of our research, the scope of biological tests was expanded to assess the safety of the found EGF fragments. Fragments 10–22, 13–19, 22–28, 26–34, 10–15, and 10–15a were selected for further study in a live/dead assay (Figure 7, Figure 8 and Figure 9).
Primary Dermal Fibroblast (ATCC, Manassas, USA) was grown in Fibroblast Basal Media supplemented with Fibroblast Growth Kit components (ATCC, Manassas, VA, USA). The cells were cultured under standard conditions (37 °C, humidified atmosphere of 5% CO2 in air). The medium was replaced every 2–3 days (75% confluence). Cells between the third and fifth passages were used in the experiment.
To evaluate proliferation and cytotoxicity, a “live/dead” test (Viability/Cytotoxicity Kit, Molecular Probes) was used. Cells were seeded at 6 × 10^4 cells/mL/well/sample in 2 mL of Fibroblast Basal Media supplemented with Fibroblast Growth Kit components (ATCC, Manassas, VA, USA). After 24 h, the medium was completely replaced. Cells in the positive control and negative control were cultured in medium containing FGF. In the remaining samples, media without FGF and with the addition of heat-inactivated serum were used. […] During the experiment, half of the medium was changed every 2 days. […] After that time, a mixture of two fluorescent dyes was used: Calcein-AM for the staining of living cells and ethidium bromide for the labeling of dead cells.
The samples were examined using an Olympus GX 71 fluorescence microscope equipped with a digital camera (DP70) (Olympus, Evident, Tokyo, Japan). The results were submitted to one-way ANOVA analysis.

[2] = target: Recombinant human EGFR protein (Active) (ab155639) (Homo sapiens, UniProt P00533); test: Microscale thermophoresis (MST) binding to EGFR
Protocol: It is known from the literature data that the dissociation constant of this binding interaction varies from 0.2 to 8 nM [102]. […] It is recommended that the concentration of the ligand should be at least 20× higher than the expected dissociation constant. In the experiments, the final labeled EGFR concentration was 25 nM.
MST analysis was performed using a Monolith NT.115 device, excitation color—Nano-RED, excitation power—100%, medium MST power.
Recombinant human EGFR protein (Active) (ab155639) was reconstituted with 500 μL of 0.45 μm filtered distilled water. Then, 100 nM solution of EGFR was prepared by mixing 3.6 μL of protein with 96.4 μL PBS-T (PBS with 0.05% Tween20). RED-tris-NTA 2nd Generation (5 μM) was obtained by dissolving […] of dye in 50 μL PBS-T. A solution of dye in PBS-T (50 nM) was prepared by mixing 1 μL of dye with 99 μL PBS-T. A solution of the protein (95 μL) was mixed with the solution of dye (95 μL) and incubated at room temperature for 30 min. The sample was then centrifuged for 10 min at 4 °C. The final labeled protein concentration in the assay was 25 nM.
Then, 20 μL of the ligand was transferred to PCR tube 1. Subsequently, 10 μL of the solution was transferred to PCR tube 2 and mixed by pipetting; 10 μL of the solution from PCR tube 2 was transferred to PCR tube 3 and mixed by pipetting; this procedure was repeated for PCR tubes 4–16. From PCR tube 16, 10 μL of the solution was discarded. Finally, 10 μL of labeled EGFR was added to each PCR tube and mixed by pipetting. The samples were incubated for 30 min at room temperature prior to MST assays. Analyses were performed using NanoTemper Technologies (München, Germany).

[3] = test system: anti-EGF rabbit polyclonal antibodies (Abcam 9695); test: Dot blot of cellulose-immobilized EGF decapeptides with anti-EGF polyclonal antibodies; format: binding;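 for Intensity (Staining Value): higher gray value means stronger antibody binding with above 120 very strong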
Protocol: Dot blot reactions were performed using primary anti-EGF rabbit polyclonal antibodies (Abcam 9695) (Cambridge, UK) and secondary goat anti-rabbit antibodies conjugated with HRP (Abcam 205718). The procedure for using the dot blot method to analyze peptides immobilized on a cellulose matrix through a triazine linker was optimized in a previous study by the authors and ensures the elimination of non-specific impacts.
The solution was then removed, and the membranes were treated overnight at room temperature with blocking buffer (3% BSA in PBS, 40 mL, pH 7.4). The cellulose sheets were then washed with PBS buffer (40 mL, 5 min, pH 7.4). […] The membranes were then washed with Tween-80 solution in PBS (0.4%, 40 mL, 2 × 5 min) and PBS (40 mL, 5 min). Goat Anti-Rabbit IgG antibodies were conjugated with HRP (Abcam 205718, 20 μL) diluted 1:1000 in 1% BSA in PBS (20 mL, pH 7.4) and then incubated with cellulose sheets for 30 min at room temperature. The membranes were then washed with Tween-80 solution in PBS (0.4%, 40 mL, 2 × 5 min) and PBS (40 mL, 5 min). Visualization of the reactions was performed using 4-chloro-1-naphtol (Sigma–Aldrich). The cellulose sheets were placed into 0.15 mg/mL solution of 4-chloro-1-naphtol in MeOH:PBS (1:5, 15 mL) with the addition of 7.5 μL of H2O2; reaction time was 30 min. The membranes were washed with distilled water, air-dried, and scanned. In places where immunological complexes developed, blue precipitate was observed. The applied dot blot test procedure ensures the elimination of non-specific interactions. Additionally, using the same SPOT synthesis procedure, a library of type IV collagen fragments was obtained. […] The gray levels of the immunological reactions were determined using ImageJ Version 1.53n7 (https://imagej.nih.gov/ij/index.html, accessed on 17 October 2021) computer imaging software.

[4] = target: T1, Recombinant human EGFR protein (Active) (ab155639) (human, UniProt P00533 25-645, labelled with RED-tris-NTA 2nd Generation dye); test: MST; RED-tris-NTA-labelled EGFR 25 nM, ligand in a 16-step 1:1 dilution series in PBS-T, 30 min at room temperature; assay concentration of the ligand 1 mM; conditions: both partners purified
T1 construct: epidermal growth factor receptor (EGFR, ErbB-1), human, recombinant; also called EGF receptor; ErbB-1; source: bought: Abcam (ab155639), recombinant

[5] = target: T1, Recombinant human EGFR protein (Active) …; test: MST; RED-tris-NTA-labelled EGFR 25 nM, ligand in a 16-step 1:1 dilution series in PBS-T, 30 min at room temperature; assay concentration of the ligand 705 μM; conditions: both partners purified
[6] = target: T1, Recombinant human EGFR protein (Active) …; test: MST; RED-tris-NTA-labelled EGFR 25 nM, ligand in a 16-step 1:1 dilution series in PBS-T, 30 min at room temperature; assay concentration of the ligand 50 μM; conditions: both partners purified
[7] = target: T1, Recombinant human EGFR protein (Active) …; test: MST; RED-tris-NTA-labelled EGFR 25 nM, ligand in a 16-step 1:1 dilution series in PBS-T, 30 min at room temperature; assay concentration of the ligand 141 μM; conditions: both partners purified
[8] = target: T1, Recombinant human EGFR protein (Active) …; test: MST; RED-tris-NTA-labelled EGFR 25 nM, ligand in a 16-step 1:1 dilution series in PBS-T, 30 min at room temperature; assay concentration of the ligand 350 μM; conditions: both partners purified
[9] = target: T1, Recombinant human EGFR protein (Active) …; test: MST; RED-tris-NTA-labelled EGFR 25 nM, ligand in a 16-step 1:1 dilution series in PBS-T, 30 min at room temperature; assay concentration of the ligand 500 μM; conditions: both partners purified
[10] = target: T1, Recombinant human EGFR protein (Active) …; test: MST; RED-tris-NTA-labelled EGFR 25 nM, ligand in a 16-step 1:1 dilution series in PBS-T, 30 min at room temperature; assay concentration of the ligand 10 mM; conditions: both partners purified
[11] = target: T1, Recombinant human EGFR protein (Active) …; test: MST; RED-tris-NTA-labelled EGFR 25 nM, ligand in a 16-step 1:1 dilution series in PBS-T, 30 min at room temperature; assay concentration of the ligand 10 μM; conditions: both partners purified
[12] = target: T1, Recombinant human EGFR protein (Active) …; test: MST; RED-tris-NTA-labelled EGFR 25 nM, ligand in a 16-step 1:1 dilution series in PBS-T, 30 min at room temperature; assay concentration of the ligand 2.5 mM; conditions: both partners purified
[13] = target: T1, Recombinant human EGFR protein (Active) …; test: MST; RED-tris-NTA-labelled EGFR 25 nM, ligand in a 16-step 1:1 dilution series in PBS-T, 30 min at room temperature; assay concentration of the ligand 5 mM; conditions: both partners purified
[14] = target: T1, Recombinant human EGFR protein (Active) …; test: MST; RED-tris-NTA-labelled EGFR 25 nM, ligand in a dilution series in PBS-T; assay concentration of the ligand not stated for the values printed in running text; conditions: both partners purified

CSCC[C@H](NC(=O)[C@H](CS)NC(=O)[C@@H](NC(=O)CNC(=O)[C@H](CC(=O)O)NC(=O)[C@H](Cc1c[nH]cn1)NC(=O)[C@H](CC(C)C)NC(=O)[C@H](CS)NC(=O)[C@H](Cc1ccc(O)cc1)NC(=O)CNC(=O)[C@H](CC(=O)O)NC(=O)[C@@H](N)Cc1c[nH]cn1)C(C)C)C(=O)N[C@@H](Cc1ccc(O)cc1)C(=O)O [10–22] (H-HDGYCLHDGVCMY-OH; C-terminus assumed)
percentage of live cells (in words) ([1]; after 1 day): slightly less survivability | live cells ([1]; after 7 days): 99.25% | live cells ([1]; after one day): 97.13% | dissociation constants (range over the assay concentrations) ([2]; MST, range over the tested fragment concentrations, labeled EGFR 25 nM): 0.07 to 416 µM

CC[C@H](C)[C@H](N)C(=O)N[C@@H](CCC(=O)O)C(=O)N[C@@H](C)C(=O)N[C@@H](CC(C)C)C(=O)O [23–26] (H-IEAL-OH)
Kd ([2]; MST, assay concentration 10 mM, labeled EGFR 25 nM, read-out: Kd): 5090 µM

CC(C)C[C@H](N)C(=O)N[C@@H](CC(=O)O)C(=O)N[C@@H](CCCCN)C(=O)N[C@@H](Cc1ccc(O)cc1)C(=O)N[C@@H](C)C(=O)N[C@@H](CS)C(=O)N[C@@H](CC(N)=O)C(=O)N[C@@H](CS)C(=O)N[C@H](C(=O)O)C(C)C [26–34] (H-LDKYACNCV-OH)
number of cells (fibroblast proliferation, in words) ([1]; after 1 day of incubation): more cells than in the medium with EGF | percentage of live cells (in words) ([1]; after 1 day): one of the highest percentages of live cells | percentage of live cells (in words) ([1]; after 7 days): one of the highest percentages of live cells

EGF: native EGF (ab9697), recombinant human EGF protein; 53-amino acid polypeptide
number of cells (fibroblast proliferation, in words) ([1]; after 7 days of incubation): induced cell growth

H-YCLHDGV-OH [13–19]
percentage of live cells (in words) ([1]; after 1 day): slightly less survivability | live cells ([1]; after 7 days): 99.30% | live cells ([1]; after one day): 97.84%

H-^44YRDLKWWELR^53-matrix [C4]
interaction with polyclonal anti-EGF antibodies (in words) ([3]; peptide on cellulose matrix): show interactions with polyclonal anti-EGF antibodies | Intensity (ability to interact with polyclonal antibodies) ([3]; peptide on cellulose matrix, antibody 1:1000, 1 h room temperature): + (strong (+), for which the staining intensity value was in the range of 120–90) | Intensity (Staining Value) ([3]; scanned spot, 256 gray scale (ImageJ)): 104.2

HDGYCL [10–15]
live cells ([1]; after 7 days): 99.52% | live cells ([1]; after one day): 98.73%

IGERCQ [38–43]
Kd ([2]; MST, range over the tested fragment concentrations, labeled EGFR 25 nM, read-out: Kd (range over the assay concentrations)): 0.108 to 0.709 µM

QYRDL [43–47]
percentage of live cells (in words) ([1]; after 7 days): highest live percentage of cells for all tested peptides | Kd [2]: 4.93 to 125 µM

VVGYIGERCQYRDL [34–47]
Kd ([2]; MST, range over the tested fragment concentrations, labeled EGFR 25 nM, read-out: dissociation constants (range over the assay concentrations)): 0.5 to 5.92 µM

YIEALDK [22–28]
percentage of live cells (in words) ([1]; after 1 day): slightly less survivability

B1: EGF fragment 34–47 (VVGYIGERCQYRDL) (peptide)
peptide: VVGYIGERCQYRDL
notes: EGF, human, residues 34-47; numbers count on: the mature protein; source: synthetic peptide (SPPS, Fmoc; crude, without preparative HPLC)
Kd [4]: 0.53 µM | Kd [5]: 2.17 µM | Kd [6]: 5.92 µM | Kd [7]: 4.62 µM | Kd [8]: 1.21 µM

B2: EGF fragment 43–47 (QYRDL) (peptide)
peptide: QYRDL
notes: EGF, human, residues 43-47; numbers count on: the mature protein; source: synthetic peptide (SPPS, Fmoc; crude, without preparative HPLC)
Kd [9]: 4.93 µM | Kd [10]: 125 µM

B3: EGF fragment 38–43 (IGERCQ) (peptide)
peptide: IGERCQ
notes: EGF, human, residues 38-43; numbers count on: the mature protein; source: synthetic peptide (SPPS, Fmoc; crude, without preparative HPLC)
Kd [11]: 0.709 µM | Kd [9]: 0.154 µM | Kd [12]: 0.108 µM | Kd [13]: 0.157 µM | Kd [14]: 0.1 to 1.8 µM
